# Results: US9914910B2, “Methods of preserving and protecting pancreatic beta cells and treating or preventing diabetes by inhibiting NOX-1” (Eastern Virginia Medical School, priority 2013, dated 2018)
# Experiments:
# INS-1 cells [1] = test: ROS measurement (DCF-DA) after pro-inflammatory cytokine cocktail (PIC); assay type: cell-based, rat
# Description: INS-1 cells were cultured in RPMI-1640 media (Life Technologies, Grand Island, N.Y.) supplemented with 10% fetal calf serum, 1% penicillin/streptomycin, 10 mM Hepes, 2 mM Lglutamine, 1 mM sodium pyruvate, and 0.05 mM 2-mercaptoethanol at 370 C with 5% CO2.
# Cells treated for 1 hour were then washed with PBS prior to addition of 10 μM 6-Carboxy-2′,7′-Dichlorodihydrofluorescein Diacetate, Di(Acetoxymethyl ester) (DCF-DA, Life Technologies) for 30 min at 370 C. Post PBS wash cells were incubated at 370 C for 1 hour. Prior to fluorescence measurement (SpectraMax Molecular Devices, Sunnyvale, Calif.) at excitation 480 nm: emission 530 nm.
# Elevation of cellular ROS in beta-cell lines INS-1 (rat beta-cell line) and βTC-3 (mouse beta-cell line) was evaluated by conversion of fluorescent substrate DCF-DA. Following one hour stimulation with a pro-inflammatory cytokine cocktail (PIC; IL-1β, TNF-α, and IFN-γ) detectable ROS elevated from control levels of 0.05±0.02 and 0.09±0.03 (INS-1 and βTC-3 respectively) to 0.25±0.04 and 0.23±0.03 (INS-1 and βTC-3 respectively). This increase was significant p<0.05 and p<0.01 (INS-1 and βTC-3 respectively).
# INS-1 cells [2] = test: Caspase-3 assay (pro-caspase-3 cleavage) after PIC; assay type: cell-based, rat; settings: INS-1, PIC 4 hours, up to
# Description: A. Caspase-3 Assay: Pro-caspase-3 cleavage was measured using a caspase-3 Assay kit (BD Pharmigen, Franklin Lakes, N.J.) per the manufacturer's instructions; fluorescence being measured (SpectraMax, Molecular Devices, Sunnyvale, Calif.) at excitation 380 nm and emission 440 nm (INS-1) or 460 nm (βTC-3, mouse).
# INS-1 cells [3] = test: Apoptosis by YO-PRO-1 fluorescence microscopy after PIC; assay type: cell-based, rat; settings: INS-1, PIC 24 hours, p<0.001
# Description: (§1) B. Fluorescence microscopy: Stimulated cells or islets were washed in cold PBS, and incubated for 30 mins at 40 C with cold PBS containing 1 μg/mL propidium iodide and 0.1 μM YO-PRO-1 (Life Technologies). For cell lines, five randomly fields per well were analyzed. For islets, all islets (>1000 um2 in size) were analyzed. Densitometric fluorescent value for YO-PRO-1 (green channel) was normalized to background and expressed proportional to cell occupied area (phase contrast). Images captured across three channels with Axiophot (Zeiss, Jena, Germany) with Axiovision (Zeiss) image analysis.
# [4] = system: primary human donor islets; test: as above; assay type: cell-based; settings: 10 μM ML171
# Description: Human donor islets were obtained from integrated islet distribution project (http://iidp.coh.org) and cultured in CMRL media (Mediatech, Manassas, Va.). Mouse islets were freshly isolated from 8-week old male C57BL/6J mice (Jackson Laboratory, Bar Harbor, Me.) by common bile duct cannulation and collagenase digestion. Islets were hand picked prior to use.
# as §1
# [5] = system: NOX-1 gene expression in INS-1 cells; test: PIC-induced NOX-1 gene expression (RT-PCR); assay type: cell-based, rat; settings: INS-1, PIC 24 hours
# Description: (§2) Total RNA was isolated using the RNeasy Mini Kit (Qiagen, Valencia, Calif.) and cDNA prepared using MMLV reverse transcriptase (Life Technologies) and random hexamers (Life Technologies). Jump Start Taq polymerase (Life Technologies) was used in PCR reactions. […] RT-PCR reactions were performed in triplicate (CFX96 Bio-Rad, Hercules, Calif.). Taqman primers (Life Technologies) were also used. Data was normalized to the housekeeping gene GAPDH and analyzed using the 2-ΔΔCT method.
# [6] = system: NOX-1 gene expression in βTC-3 cells; test: PIC-induced NOX-1 gene expression (RT-PCR); assay type: cell-based, mouse; settings: βTC-3, PIC 24 hours
# Description: as §2
# [7] = system: NOX-1 gene expression in primary mouse islets; test: PIC-induced NOX-1 gene expression (RT-PCR); assay type: cell-based
# Source text: Human donor islets were obtained from integrated islet distribution project (http://iidp.coh.org) and cultured in CMRL media (Mediatech, Manassas, Va.). Mouse islets were freshly isolated from 8-week old male C57BL/6J mice (Jackson Laboratory, Bar Harbor, Me.) by common bile duct cannulation and collagenase digestion. Islets were hand picked prior to use. […] Total RNA was isolated using the RNeasy Mini Kit (Qiagen, Valencia, Calif.) and cDNA prepared using MMLV reverse transcriptase (Life Technologies) and random hexamers (Life Technologies). Jump Start Taq polymerase (Life Technologies) was used in PCR reactions. Primers used with SYBR Green 1 (Molecular Probes, Carlsbad, Calif.) probes: […] GAPDH forward [NT] ID NO: 3); GAPDH reverse [NT] NO: 4). RT-PCR reactions were performed in triplicate (CFX96 Bio-Rad, Hercules, Calif.). Taqman primers (Life Technologies) were also used.
# [8] = system: NOX-1 protein in INS-1 cells; test: NOX-1 protein expression (western blot); assay type: cell-based; settings: Rattus norvegicus, INS1, 24 h; read-out: inhibition of PIC induction of NOX-1 protein
# Description: (§3) Cells were then lysed (1× PBS, 1% Triton X-100, 1 mM PMSF, 1 mM Halt Protease Inhibitor Cocktail (Pierce, Rockford, Ill.), 1 mM NaVO4), and incubated on ice for 20 min. Cleared (14,000 rpm, 15 min, 4° C.) lysate was collected. Proteins separated on 10% Tris-glycine gels (Life Technologies) were transferred onto PDVF (Immobilon-FL, Millipore, Billerca, Mass.). Membranes were blocked in TBS/0.05% Tween (Sigma) plus 5% non-fat milk (Bio-Rad) for 1 hr at room temperature before incubation overnight at 40 in primary antibody with gentle shaking. The membrane was washed between antibody cycles four times for 5 min each in TBS/Tween (0.05%). Primary antibodies: 1:250 Anti-NOX-1 or 1:1000 β-actin 1 (Abcam, Cambridge, Mass.).
# (§4) Signal detected with 1:2000 HRP-secondary antibody for 1 hour (GE Healthcare, Buckinghamshire, UK) SuperSignal Chemiluminescent Substrate (Thermo Scientific, Rockford, Ill.) on a ChemiDoc XRS System (Bio-Rad). Densitometry was determined using Image J (http://rsb-web.nih.gov/i/).
# [9] = system: NOX-1 protein in βTC-3 cells; test: NOX-1 protein expression (western blot); assay type: cell-based; settings: Mus musculus, 24 h; read-out: inhibition of PIC induction of NOX-1 protein
# Description: as §3, §4
# [10] = system: MCP-1, IL-12p40, IL-12 p35, IFNγ gene expression in primary mouse islets; test: Cytokine-induced target gene expression (real time PCR); assay type: cell-based; settings: NCTT-1 100 nM, ML171 1 μM
# Description: as §2
# Data is quantitative real time PCR gene expression analysis from triplicate experiments performed in replicate. Fold induction in gene expression over control (non cytokine-treated) islets is graphed.
smiles,measurement,setting,value
"CC(=O)c1ccc2c(c1)Nc1ccccc1S2 [ML171, 2-acetylphenothiazine]",inhibition of PIC-induced ROS (DCFDA conversion),"INS-1 cells [1]; INS-1, PIC 1 hour",dose dependent inhibition
same,concentration of maximal protection from PIC-induced ROS,INS-1 cells [1]; analogous results for INS-1 and βTC-3,10 µM
same,block of PIC-induced activation of caspase-3,INS-1 cells [2],up to 100%±3.4%
same,PIC-induced apoptosis (YO-PRO-1),INS-1 cells [3],apoptosis was significantly decreased
same,reduction of beta-cell apoptosis induced by PICs,[4],30%±3%
same,inhibition of PIC-induced expression of NOX-1 gene,[5],33%
same,inhibition of PIC-induced expression of NOX-1 gene,[6],23%
same,inhibition of PIC-induced expression of NOX-1,"[7]; 1 μM, 24 hours",84%
same,induction of gene NOX-1 by PIC,"[7]; NCTT-1 100 nM, ML171 1 μM",attenuated
same,inhibition at 1 µM,[8],100%
same,inhibition at 1 µM,[9],100%
same,induction of gene IFNγ by PIC,[10],attenuated
same,induction of gene IL-12 p35 by PIC,[10],attenuated
same,induction of gene IL-12p40 by PIC,[10],attenuated
same,induction of gene MCP-1 by PIC,[10],attenuated
